Data on 12 compounds can be found in patent EP0249561B1, “Compositions using liposome-encapsulated non-steroidal anti-inflammatory drugs” (THE LIPOSOME COMPANY, INC., priority 1986, dated 1987).

The subject of series [1] is rat stomach mucosa. The conditions noted are these: rats dosed with the prostaglandin; cited from earlier work.
For series [2] the following is noted: generally shown by others, cited from earlier work; for half-lives: range for the group.
In series [3] the test system is male Wistar rats. Briefly: Acute ulceration after one oral dose of indomethacin, ulcer lengths counted in excised stomachs (Control 1 / Example 2). Format: in vivo. Particulars: indomethacin 10 mg/kg, starved rats, 4 hours after dosing. How it is done: Twenty 225-250 g male Wistar rats were starved for 18-24 hours prior to dosing. Rats were allowed access to water throughout the study. Ten rats in the free drug control group were then administered one oral dose of indomethacin, dissolved in polyethylene glycol 400 at 7 mg/ml and administered at 10 mg/kg body weight of indomethacin.
Four hours following dosing, rats were sacrificed by carbon dioxide anoxia and their stomachs surgically removed by severing at the cardiac and pyloric sphinctors. The stomachs were opened along the lesser curve, flattened, and washed with saline. Ulcer lengths were counted under a dissecting microscope (American Optical, Buffalo, NY) equipped with an eyepiece micrometer, and lengths were summed and averaged for all animals in a single treatment group.
Ulcer protection was assessed by summing and averaging ulcer lengths (in mm) of the treated group and comparing the value to that of the group administered free drug […]. Percent ulcer inhibition was calculated by dividing the average length of ulceration of the liposome-treated group by the of the corresponding free drug group, and multiplying by 100.
The procedures and materials of Example 1 were employed using 10 mg/kg body weight of indomethacin entrapped in stable plurilamellar vesicles (SPLVs) composed of digalactosyl diglyceride; ulcer protection was assessed as in Example 1.

For series [4], the system named is female Wistar rats. Briefly: Acute carageenan paw edema model, paw volume by plethysmometer (Control 2 / Example 3). Particulars: indomethacin 2 mg/kg oral, 30 minutes before carageenan, paw volume 2.5 hours after carageenan. The format is in vivo. How it is done:
Eight female Wistar rats weighing approximately 100 grams were allowed free access to food and water. A tatoo line was inscribed onto the right rear paw just below the hair line. Initial paw volume was measured by a transducer-linked plethysmometer (Stoelting Co., Chicago, Illinois) which contained a saline solution. The instrument measures paw volumes by an electrical charge difference across two electrodes resulting from the volume displacement by the paw. A transducer corrects this charge difference into cubic centimeters of volume displaced. Following immersion of the paw in the perspex cell to the inscribed line, a direct measurement of the displacement volume was recorded. Rats were orally dosed with 2 mg/kg body weight of indomethacin in polyethylene glycol 400. At 30 minutes post treatment, rats received an injection of 0.1 ml of 1.5% carageenan in saline […] directly into the rear paw pad. The paw volume was again determined 2.5 hours after the carageenan administration. The edema intensity (EI) was calculated: [formula] and averaged for the eight rats. The paw volumes for the eight rats were averaged and the percent swelling inhibition was calculated: % swelling Reduction: [formula] […] Rats were orally dosed with the liposomes, and percent swelling reduction was calculated as in Example 2.

The test system of series [5] is rats (Wistar). Briefly: Inducing gastric ulcers (acute), oral administration (Control 3). The format is in vivo. Particulars: for mm Ulceration + SEM: acute oral, 4 hours. From the text:
For oral studies, it is convenient to use indomethacin but other nonsteroidal anti-inflammatory therapeutic agent can be similarly employed. This model is also useful in examining other nonsteroidal anti-inflammatory therapeutic agents and other mammals. Simply varying doses will induct gastric ulcers for other agents and mammals in this model. Unlike gastric ulcer protocols, it has been shown that for nonsteroidal anti-inflammatory effects such as indomethacin-induced intestinal lesions to occur, animals must be allowed free acces to food and water during the study.
Indomethacin at dosages between about 2 mg/kg and 10 mg/kg were given in 0.5 ml of neat PEG-400, vehicle or as incorporated into the liposomes at a 200 mg/kg dosage of phospholipid. Four hours following oral administration of test formulations, animals were sacrificed by CO₂ anoxia and the stomachs were excised. For systemically-induced gastric ulceration, dosages of PEG-400 solubilized indomethacin between 4 mg/kg and 50 mg/kg in 0.5 ml were administered subcutaneously. […] Tissue was thoroughly rinsed in saline and the inner mucosal surface was laid flat for microscopic evaluation. Visible ulcers were quantitated using a dissecting microscope (AO Optical, Buffalo, NY) equipped with an eyepiece micrometer. Results using this test were expressed in millimeters of ulceration and in percent inhibition of ulcers where treatment was effected. For all studies, a minimum of 10 animals per experimental group were employed. Experiments were conducted in triplicate, thereby representing a minimum of 30 rats per group.

Series [6] has as its system rats (Wistar). Briefly: Inducing intestinal ulceration (chronic), 4-day oral dosing (Control 4). The conditions noted are these: about 4 mg/kg daily oral over 4 days. Format: in vivo. On the procedure: Single daily oral dosages of indomethacin at about 4 mg/kg in vehicle or in monophasic vesicles were administered over 4 days. Test animals in this example were rats (Wistar). On the fifth day the full length of the intestines were excised and slit open opposite to the attached mesenteric issue. The mucosal surface was rinsed with saline, the ulcers (including perforations) were quantitated in millimeters as described about or by determination of total surface area of lesions. This was accomplished by means of a planimeter (Zidas, Carl Zeiss, West Germany) optically linked to an SR stereo dissecting microscope (Zeiss) with a draw tube attachment. In this example results were expressed as total mm² of ulcerated surface and as percent inhibition of ulceration when treatment was provided. Average values were calculated based upon a minimum of 5 animals per group from at least duplicate experiments. […] Sham vehicle, however, were nontoxic to the animals. Clearly this method is easily adaptable by those skilled in the art to other nonsteroidal anti-inflammatory therapeutic agents and other animals.

Turning to Prostaglandin E₂, the “increase in the major gastric surface protective surfactant” value in series [1] was 2-6 fold.
Take `O=C(O)Cc1ccccc1Nc1c(Cl)cccc1Cl` [diclofenac]: the blood level half-lives entry in series [2] is reported as “under four”.
Regarding `CN1C(C(=O)Nc2ccccn2)=C(O)c2ccccc2S1(=O)=O` [piroxicam], the half-lives result in series [2] is on record as “over ten hours to three days”.
For `COc1ccc2c(c1)c(CC(=O)O)c(C)n2C(=O)c1ccc(Cl)cc1` [Indomethacin in PEG-400, indomethacin], the “mm ULCERATION” value in series [3] is reported as 43.9 mm. Besides, in series [4], the “% SWELLING REDUCTION” value was determined as 37.2%. Besides, the “total ulcer length, high reached in individual experiments” value in series [5] (10 mg indomethacin/kg body weight, P.O.) is 45 mm. In addition, the “mm Ulceration + SEM” value in series [5] (indomethacin 2 mg/kg) is 1.1 ± 0.3 mm; in series [5] (indomethacin 4 mg/kg), 3.4 ± 0.8 mm; in series [5] (indomethacin 6 mg/kg) it was 9.7 ± 1.2 mm; in series [5] (indomethacin 8 mg/kg), 22.3 ± 3.4 mm; in series [5] (indomethacin 10 mg/kg), 23.3 ± 2.6 mm; in series [5] (indomethacin 10 mg/kg, listed as indomethacin in PEG-400) it was 25 mm. Also, in series [6], the mortality rate is on record as 20-30%. In addition, the blood level half-lives result in series [2] is given as “under four”.
For the compound `O=C(O)c1cc(-c2ccc(F)cc2F)ccc1O` [diflunisal], the half-lives result in series [2] is “over ten hours to three days”.
On to `CCCCC1C(=O)N(c2ccccc2)N(c2ccccc2)C1=O` [phenylbutazone], for which the half-lives entry in series [2] is listed as “over ten hours to three days”.
Take `Cc1cccc(Nc2ccccc2C(=O)O)c1C` [Mefenamic acid]: the blood level half-lives entry in series [2] is given as “about four”.
For the compound `CC(=O)Oc1ccccc1C(=O)O` [acetylsalicylic, Acetylsalicylic Acid (ASA)], the blood level half-lives entry in series [2] was “under four”.
On to `CC(C(=O)O)c1cccc(Oc2ccccc2)c1` (stereo not shown) [fenoprofen], for which, in series [2], the blood level half-lives result was “under four”.
Regarding `Cc1ccc(Cl)c(Nc2ccccc2C(=O)O)c1Cl` [meclofenamate], the blood level half-lives result in series [2] was “under four”.
As for `CC1=C(CC(=O)O)c2cc(F)ccc2/C1=C\c1ccc([S+](C)[O-])cc1` (stereo not shown) [sulindac], the half-lives entry in series [2] is recorded as “over ten hours to three days”.
Turning to `Cc1ccc(C(=O)c2ccc(CC(=O)O)n2C)cc1` [tolmetin], in series [2], the blood level half-lives result is “under four”.
